In US12533362B2, “Methods for treating diseases associated with ciliopathies” (ALEXION PHARMACEUTICALS, INC., priority 2017, dated 2026):

Key:
[1] = tested on: URECs; experiment: microarray differential expression analysis of URECs; assay type: cell-based, human; conditions: for top regulated genes signaling pathway, microarray: DMSO vs 0.2 μM, 2 μM and 10 μM
Procedure: Microarray analysis was performed to identify expressed genes responsible for the alprostadil-mediated restoration of ciliogenesis.

[2] = biological target: EP2 (Mus musculus, UniProt Q62053); conditions: cited from earlier work
[3] = biological target: EP4 (Mus musculus, UniProt P32240); conditions: cited from earlier work
[4] = tested on: control normal epithelial cells; experiment: automated cilia-based ciliogenesis assay in control normal epithelial cells; assay type: cell-based, human
Excerpt: (§1) To identify compounds for treating diseases associated with ciliopathies such as, for example, NPHP, NPHP patient-derived cells were obtained and cell lines were established. Briefly, peeled renal epithelial cells, which are mostly proximal tubule cells (tbc) recovered from urine of NPHP1-deficient patients, were immortalized by retroviral gene transfer of SV40 T antigen. Cells were fixed and fluorescence-labeled with Hoechst (for nuclei staining), anti-γ-tubulin antibody (for basal bodies staining), and anti-ARL13B antibody (for cilia staining) for detection using immunofluorescence microscopy.
(§2) Briefly, NPHP patient-derived cells and control cells were cultured in complete media, at 39C (non-permissive temperature for SV40 expression), followed by automatic cilia analysis using immunofluorescence microscopy to measure ciliogenesis, e.g., in terms of % cilia. A spinning disk platform may be used for drug screening (FIG. 5, A-J) and ciliogenesis analysis of G3 multi-OMICs dataset (FIG. 29, A-E).
The cilia-based assay described above may be used to identify compounds that restore ciliogenesis. […] Automated random acquisition of 35 images per well may be performed, for example. Each image may have z-stack of 10 images taken at <1 μm intervals. Consecutive imaging of nucleus (Hoechst at 461 nm), basal body (γ-tubulin at 555 nm) and cilia (ARL13b at 647 nm) may be obtained.

[5] = tested on: NPHP patient-derived cells; experiment: automated cilia-based ciliogenesis assay in NPHP patient-derived cells; assay type: cell-based, human
Excerpt: as §1, §2
The cilia-based assay described above may be used to identify compounds that restore ciliogenesis. […] Automated random acquisition of 35 images per well may be performed, for example. Each image may have z-stack of 10 images taken at <1 μm intervals.

[6] = biological target: T1, EP3 (Mus musculus, UniProt P30557); conditions: cited from earlier work
T1 sequence (P30557 1-365): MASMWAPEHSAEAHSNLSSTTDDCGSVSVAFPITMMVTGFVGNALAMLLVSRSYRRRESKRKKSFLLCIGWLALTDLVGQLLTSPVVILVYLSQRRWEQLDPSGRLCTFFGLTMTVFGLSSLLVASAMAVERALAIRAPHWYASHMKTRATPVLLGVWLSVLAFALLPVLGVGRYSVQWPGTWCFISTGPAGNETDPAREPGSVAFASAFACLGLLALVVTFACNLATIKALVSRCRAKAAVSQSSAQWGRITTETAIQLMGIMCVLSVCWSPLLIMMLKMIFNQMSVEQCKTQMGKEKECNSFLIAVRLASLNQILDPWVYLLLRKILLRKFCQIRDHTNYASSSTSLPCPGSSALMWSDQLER

[7] = tested on: zebrafish NPHP4 MO; experiment: zebrafish NPHP4 morpholino (MO) model; assay type: in vivo
Procedure: Briefly, wild-type Tg(wt1b:GFP) transgenic zebrafish embryos were injected with morpholino (e.g., nphp4 ATG MO) at one-cell stage. At 8 hours post-fertilization (hpf), injected embryos were treated with drug or vehicle in PTU-egg water (1 mL in 12-well plates). At 24 hpf, drug treatment was renewed, and pronase was added at 36 hpf for chorion removal.

[8] = biological target: T2, EP1 (Mus musculus, UniProt P35375); conditions: cited from earlier work
T2 sequence (P35375 1-405): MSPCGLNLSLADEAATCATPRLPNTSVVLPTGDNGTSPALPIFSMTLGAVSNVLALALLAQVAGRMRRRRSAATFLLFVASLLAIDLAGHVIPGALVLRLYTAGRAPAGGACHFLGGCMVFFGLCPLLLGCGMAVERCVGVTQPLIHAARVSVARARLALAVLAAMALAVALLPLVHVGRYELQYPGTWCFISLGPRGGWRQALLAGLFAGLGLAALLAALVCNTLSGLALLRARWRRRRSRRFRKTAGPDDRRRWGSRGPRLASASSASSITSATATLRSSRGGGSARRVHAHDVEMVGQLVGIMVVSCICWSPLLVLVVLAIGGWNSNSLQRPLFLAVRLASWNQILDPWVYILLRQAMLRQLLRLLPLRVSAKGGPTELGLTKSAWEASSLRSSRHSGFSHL

[9] = meta-analysis, multiple NPHP patient-derived cell lines

EP4, sequence (P32240 whole entry): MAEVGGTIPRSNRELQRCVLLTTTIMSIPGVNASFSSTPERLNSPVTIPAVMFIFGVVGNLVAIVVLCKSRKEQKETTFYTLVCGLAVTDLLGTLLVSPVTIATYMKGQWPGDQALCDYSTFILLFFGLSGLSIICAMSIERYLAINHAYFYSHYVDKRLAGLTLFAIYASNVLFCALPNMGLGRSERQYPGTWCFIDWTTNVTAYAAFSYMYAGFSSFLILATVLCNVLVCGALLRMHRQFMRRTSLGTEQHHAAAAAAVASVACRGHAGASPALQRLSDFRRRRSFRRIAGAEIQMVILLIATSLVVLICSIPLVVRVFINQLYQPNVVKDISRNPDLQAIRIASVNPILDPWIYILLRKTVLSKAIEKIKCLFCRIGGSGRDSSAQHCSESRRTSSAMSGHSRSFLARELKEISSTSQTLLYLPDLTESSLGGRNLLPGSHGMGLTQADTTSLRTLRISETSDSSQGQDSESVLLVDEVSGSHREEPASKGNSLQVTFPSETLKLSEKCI
EP2, sequence (Q62053 whole entry): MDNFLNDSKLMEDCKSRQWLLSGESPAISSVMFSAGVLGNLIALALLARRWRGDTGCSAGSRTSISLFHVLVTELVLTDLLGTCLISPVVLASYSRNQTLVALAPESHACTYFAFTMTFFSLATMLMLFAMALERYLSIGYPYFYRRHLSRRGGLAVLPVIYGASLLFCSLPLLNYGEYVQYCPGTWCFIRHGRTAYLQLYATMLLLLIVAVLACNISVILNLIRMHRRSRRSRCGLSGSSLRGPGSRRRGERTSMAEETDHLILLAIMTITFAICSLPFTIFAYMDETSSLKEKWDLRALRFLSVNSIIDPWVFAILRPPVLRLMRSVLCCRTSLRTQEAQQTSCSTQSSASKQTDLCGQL

## CCCCC[C@H](O)/C=C/[C@H]1[C@H](O)CC(=O)[C@@H]1CCCCCCC(=O)O [alprostadil, prostaglandin E1]
[1]; Qiazol extraction
  top regulated genes signaling pathway, microarray: down-regulation of cell adhesion and extracellular matrix, and up-regulation of interferon signaling
[1]; RLT extraction
  top regulated genes signaling pathway, microarray: down-regulation of cell adhesion and extracellular matrix
[1]; pathway analysis crossing microarray data with RNAseq of control vs patient
  alteration in gene expression in NPHP patient-derived cells compared to control cells: could reverse alteration in gene expression
[2]
  IC50: 10 nM
[3]
  IC50: 2.1 nM
[4]; 2 μM vs DMSO 0.04%, CTRL cells, FIG. 8A
  ciliogenesis, meta-analysis: does not significantly affect ciliogenesis
[4]; 2 μM vs DMSO, normal control cells, FIG. 11B
  ciliogenesis rate: no significant effect on ciliogenesis rate
[5]; 2 μM vs DMSO, NPHP1(del) cell lines PT1, 1-03-P, 1-06-P1, 1-06-P2, 1-09-P, 1-10-P, 1-12-P, FIG. 11B
  ciliogenesis rate: significantly increases ciliogenesis rate
[5]; alprostadil titration from 1 nM to 2 μM and from 100 pM to 2 μM, FIG. 7
  % ciliated cells, dose response: significantly increases % ciliated cells in a dose-dependent manner
[5]; drug screening, various tested concentrations, FIG. 5 / FIG. 6
  effect on ciliogenesis (percentage of ciliated cells) as compared with DMSO: significantly restored ciliogenesis
[5]; five independent experiments, FIGS. 26A-26E
  % ciliated cells, multi-omics phenotypic analysis: partially restores ciliogenesis
[5]; meta-analysis, FIG. 8C
  increase in the effect on ciliogenesis in NPHP patient-derived cells versus control (DMSO 0.04%): about two-fold
[5]; [9]
  linear regression pooled slope value of effect on ciliogenesis: 1.414
  linear regression range of slope values of effect on ciliogenesis: 1.333 to 1.506
[5]; vs DMSO 0.04%, PT1 cells, FIG. 8B
  ciliogenesis, meta-analysis: significantly increases ciliogenesis
[6]
  IC50: 1.1 nM
[7]; 0.5 μM and 5 μM vs DMSO
  dorsal curvature (automated quantified parameter): did not significantly affect dorsal curvature
[7]; 0.5 μM and 5 μM vs DMSO, p>0.05 Fischer's exact test
  body axis curvature (normal, class I, class II, class III): did not significantly affect body axis curvature
[7]; 0.5 μM vs DMSO, p<0.05 Fischer's exact test
  percentage of severe pronephric cysts: significantly reduced the percentage of severe pronephric cysts
[7]; 5 μM vs DMSO
  percentage of severe pronephric cysts: significantly reduced the percentage of severe pronephric cysts
[8]
  IC50: 36 nM
